Read-outs that look alike come from different tables or passages of the source.
Tests used:
[1] = rat, in vivo
in vivo = settings: male, Sprague-Dawley, rat, 100 ug/kg
[2] = in vivo; cited from earlier work

SMILES: CSCC[C@@H]1NC(=O)[C@H](CC(C)C)NC(=O)[C@H](CCCNC(=N)N)NC(=O)[C@H](CO)NC(=O)[C@@H]2CSSC[C@@H]3NC(=O)[C@H](CO)NC(=O)CNC(=O)[C@H]([C@@H](C)O)NC(=O)[C@H](CSSC[C@H](N)C(=O)N[C@@H](CCCCN)C(=O)NCC(=O)N[C@@H](CCCCN)C(=O)NCC(=O)N[C@@H](C)C(=O)N[C@@H](CCCCN)C(=O)N2)NC(=O)[C@H](CSSC[C@@H](C(N)=O)NC(=O)[C@H](CCCCN)NC(=O)CNC(=O)[C@H](CO)NC(=O)[C@H](CCCNC(=N)N)NC3=O)NC(=O)[C@H](CC(=O)O)NC(=O)[C@H](Cc2ccc(O)cc2)NC1=O [ziconotide, Ziconotide]
- AUC0-6 in CSF [1]: 1.57 ± 0.44 µg·min/mL
- Cmax in CSF [1]: 33.55 ± 7.39 ng/mL
- Tmax in CSF [1]: 0.25 h
- bioavailability (AUC0-6) in CSF, fold less than i.v administration [1]: ~ 3 fold
- elimination rate constant in CSF [1]: 1.01 ± 0.34 h⁻¹
- AUC0-6 in CSF ([1]; iv): 4.98 ± 0.98 µg·min/mL
- Cmax in CSF ([1]; iv): 37.78 ± 6.8 ng/mL
- Tmax in CSF ([1]; iv): 2 h
- level at 0.25 h (in vivo): 992 ± 76.4 ng/mL
- occurrence of meningitis [2]: 3%

Reference: article PMC4747835 (Journal of controlled release : official journal of the …, 2015)
